Measured values from patent US20240197891A1, “PHARMACEUTICAL COMPOSITIONS COMPRISING POH DERIVATIVES” (UNIVERSITY OF SOUTHERN CALIFORNIA, priority 2021, published 2024).

What was measured:
Type in all cases: in vivo, mouse
[1] = tested on: UV-B exposed skin; test: UV-B induced skin damage in SKH-1 hairless mice; details: topical post exposure
Protocol: (§1) FIG. 23 illustrates the simulation of sunlight by irradiation with UVB lamps (310 nm). The irradiation was conducted in a phototoxicity testing chamber and fitted with a UV-B lamp providing with a spectral output of approximately 310 nm. The source of UVR was a short-wavelength UV lamp (VWR. Radnor, PA). The peak spectral output of this lamp was approximately 310 nm, with no energy detectable below 260 nm, approximately 0.6% between 260 and 280 nm (UV-C), 72.7% between 280 and 320 nm (UV-B), and 26.7% between 320 and 400 nm (UV-A). Radiation dosage of UV-B per irradiation was set at 54 mJ/cm^2 for the first week, 72 mJ/cm^2 for the second week, 90 mJ/cm^2 for the third week, and 108 mJ/cm^2 for the remaining weeks, as confirmed by a UV monitor. Each irradiation event was 10 minutes long.
POH-LA conjugate, linoleic acid, POH, and the additive combination of linoleic acid and POH were each suspended in glycerol:ethanol (90:10 vol/vol) to a final concentration of 10 nM with 50 μL and applied to each SKH-1 hairless mouse post UV-B exposure for treatment. The sunblock mouse was gently wiped on the exposure area with the sunblock towelette. […] In FIG. 23B, the mice were treated with the glycerol:ethanol vehicle only. In FIG. 23C, the mice were treated with POH. In FIG. 23D, the mice were treated with linoleic acid. In FIG. 23E, the mice were treated with an mixture of linoleic acid and POH. In FIG. 23F, the mice were treated with POH-LA conjugate. In FIG. 23G, the mice were treated with sunblock. The application of POH-LA conjugate to UV-B exposed tissue limits the amount of observable skin damage as compared to the untreated control (B) or the individual components of POH-LA conjugate either alone (POH—C and LA—D), in mixture (E), or with sunblock (G).
as §1, with “FIGS. 24A-D illustrates the” for “FIG. 23 illustrates the”, “UV lamp (VWR, Radnor, PA).” for “UV lamp (VWR. Radnor, PA).”, “second week, and 90 mJ/cm^2” for “second week, 90 mJ/cm^2”, “third week, as confirmed” for “third week, and 108 mJ/cm^2 for the remaining weeks, as confirmed”, “UV monitor.” for “UV monitor. Each irradiation event was 10 minutes long.”
POH-LA conjugate (FIG. 24A), linoleic acid (FIG. 24B), POH (FIG. 24C), and the additive combination of linoleic acid and POH (FIG. 24D) were each suspended in glycerol:ethanol (90:10 vol/vol) to a final concentration of 10 nM with 50 μL applied to each mouse post UV-B exposure for treatment. The application of POH-LA conjugate to UV-B exposed tissue limits the amount of observable skin damage as compared the individual components of POH-LA conjugate either alone or in mixture.
as §1, with “This example” for “FIG. 23”, “nm)” for “nm). The irradiation”, “(VWR,” for “(VWR.”, “monitor.” for “monitor. Each irradiation event was 10 minutes long.”
POH-LA conjugate, linoleic acid, POH, and the additive combination of linoleic acid and POH were each suspended in glycerol:ethanol (90:10 vol/vol) to a final concentration of 10 nM with 50 μL applied to each mouse post UV-B exposure for treatment. […]

[2] = tested on: IL-1β; test: Serum IL-1β following UV exposure
Protocol: (§2) SKH-1 hairless mice were treated with 10 mg/kg POH-LA conjugate freshly prepared daily. The POH-LA conjugate was formulated in glycerol:ethanol (90:10) while the control animals received the glycerol:ethanol vehicle only or the commercially available sunblock (Well & Good Sun Protection Wipes SPF 15). Additional test groups were treated with POH formulated in the glycerol:ethanol vehicle or linoleic acid formulated in the glycerol:ethanol vehicle. 50 μL of each formulation was placed on a area 1 cm^2 area that was exposed to the UV light. The mice were treated with their respective formulations after exposure to the UV light. In FIG. 22A, the mouse was treated with sunblock. In FIG. 22B, the mouse was treated with POH. In FIG. 22C, the mouse was treated with linoleic acid. In FIG. 22D, the mouse was treated with POH-LA conjugate. In FIG. […]:ethanol vehicle only. The POH-LA conjugate, POH or linoleic acid solutions were gently spread on the skin surface and allowed to air dry. The sunblock mouse was gently wiped on the exposure area with the sunblock towelette. This exposure and treatment went on for a maximum of 10 weeks. Throughout the experimental period the animals were photographed and weighed. At the end of the experimental period the mice were photographed and euthanized, followed by skin and blood collection. Blood was analyzed for markers of inflammation and DNA recovered from the exposed area of the skin and analyzed for markers of DNA damage.
(§3) Furthermore, blood samples were taken from each mouse 4 hours after the last cutaneous treatment. About 0.5 mL of blood was collected by cardiac puncture […]. Serum was aliquoted in Eppendorf tubes and store at −80° C. as preparation for cytokine analyses. […]
(§4) Mice were treated with 10 mg/kg POH-LA conjugate freshly prepared daily. […] Blood was analyzed for markers of inflammation and DNA recovered from the exposed area of the skin and analyzed for markers of DNA damage.

[3] = tested on: TNF-α; test: Serum TNF-α following UV exposure
Protocol: as §2, §3, §4

[4] = 3 weeks of UV-B exposure and treatment
[5] = 5 weeks of UV-B exposure and treatment

In the case of C=C(C)[C@@H]1CC=C(CO)CC1 [POH, perillyl alcohol], the observable skin damage [1, 4] is reported as “displayed damage”, the observable skin damage [1, 5] is reported as “displayed damage” and the “IL-1β serum levels increase” value [2] is reported as 8.5 ± 3.0 pg/mL. It also gave a TNF-α levels [3] of 103.2 ± 18.0 pg/mL.
With C=C(C)[C@@H]1CC=C(COC(=O)CCCCCCC/C=C\C/C=C\CCCCC)CC1 [POH-LA conjugate, Octadeca-9,12-dienoic acid 4-isopropenyl-cyclohex-1-enylmethyl ester] the observable skin damage [1, 4] was “displayed no damage”, the observable skin damage [1, 5] was “appeared the same as the unexposed control mice skin” and the “IL-1β serum levels increase” value [2] was 6.4 ± 2.5 pg/mL. For the same compound, the TNF-α levels [3] was 72.6 ± 22.8 pg/mL.
